# Measured values published in EP4813993A1, “COMPOUND, PREPARATION METHOD THEREFOR, AND USE THEREOF” (Sichuan Kelun Pharmaceutical Research Institute Co., Ltd., priority 2023, dated 2025).
# Legend:
# [1] = test system: acetic acid writhing model; test: Mouse acetic acid writhing model; type: in vivo, ICR mice; settings: for Number of writhing responses / Inhibition rate (%): ICR mice; for Number of writhing responses: 60 min before 0.8% acetic acid i.p., 30 min observation, Mean + SD, n = 10; for Inhibition rate (%): inhibition of writhing responses vs control group
# [2] = test system: CFA-induced rat inflammatory pain model; test: CFA-induced rat inflammatory pain model, Von Frey test; type: in vivo, SD rats
# Procedure: Experimental Example 9: Pharmacodynamic effect study of compounds in CFA-induced rat inflammatory pain model Experimental animals: SD rats, male, 180-220 g.
# Compound preparation: 5% (final preparation volume) of DMSO was added to dissolve the test compound, and then 10% (final preparation volume) of Cremophor EL and 85% Saline were sequentially added; an appropriate amount of Celecoxib was weighed, 5% (final preparation volume) of DMSO was added to dissolve the test compound, and then 5% (final preparation volume) of HS-15 and 90% Saline were sequentially added.
# SD rats were anesthetized with isoflurane. The right hind paw was disinfected, a needle was inserted subcutaneously at the posterior plantar aspect, and 50 µL of complete Freund's adjuvant (CFA, 1 mg/mL) was administered via subcutaneous injection at the midplantar region, with the needle withdrawn slowly while rotating to prevent leakage. After modeling, local redness and swelling of the soles of the feet, difficulty in walking, and lifting of the affected feet were observed.
# (§1) 2. Administration and test
# (§2) The Von Frey test was performed once before the surgery. On the second day after animal modeling, animals meeting the baseline requirements were selected for enrollment. The animals were randomly divided into 6 groups based on the 50% PWT values, with 10 animals per group. Administration was performed under a double-blind test protocol. The 50% PWT of the animals was measured separately before administration (baseline) and at 0.5 h, 2 h, and 8 h after administration. The model control group was given normal saline, while the compound groups were given the compounds according to the administration doses in the table below.
# incision pain model = test: Incision pain model in ICR mice, Von Frey test; type: in vivo; settings: Mean + SEM, n = 10; for PWT 50% value (g) Post-surgery, Preadministration: baseline before administration; for PWT 50% value (g) Pre-surgery: baseline before surgery; for PWT 50% value (g) 0.5 h: 0.5 h after administration; for PWT 50% value (g) 2 h: 2 h after administration; for PWT 50% value (g) 4 h: 4 h after administration
# Procedure: Experimental Example 6: Pharmacodynamic effect study of compounds in incision pain model in ICR mice Experimental animals: ICR mice, male, 28-35 g.
# Compound preparation: 5% (final preparation volume) of DMSO was added to dissolve the test compound, and then 10% (final preparation volume) of Cremophor EL and 85% Saline were sequentially added.
# A plantar incision pain model was established in mice via surgery before the administration and test. Mice were placed in an anesthesia induction chamber and given 3%-4% isoflurane for anesthesia induction. After the anesthesia induction, a breathing mask was applied, and the isoflurane concentration was adjusted to 1%-2% to prevent the mice from suffering pain during the surgery. Each mouse was placed in a supine position, and the surgical site was disinfected with alcohol and iodophor. Under sterile conditions, a 0.5 cm longitudinal incision was made on the left hind paw surface, 0.2 cm away from the heel, extending toward the toes. The skin and fascia were incised; the plantar muscle was separated, slightly lifted, and longitudinally incised. The skin was then sutured with 5-0 sutures and disinfected.
# as §1
# as §2, with “modeling, the test was repeated, and” for “modeling,”, “grouped” for “divided into 6 groups”, “4” for “8”, “administration, and a single dose was administered.” for “administration.”
# [3] = Pharmacokinetic study in ICR mice; type: in vivo; settings: male, mouse, plasma
# [4] = mouse acetic acid writhing model
compound,measurement,setting,value
"COc1c(C2CC(C)(C(F)(F)F)SC2C(=O)Nc2ccnc(C(N)=O)c2)ccc(F)c1F (single isomer, unassigned) [Compound 139-A, 4-(3-(3,4-difluoro-2-methoxyphenyl)-5-methyl-5-(trifluoromethyl)tetrahydrothiophene-2-carboxamido)picolinamide]",Number of writhing responses,[1]; Dose 50 mg/kg,27±18
same,Inhibition rate (%),[1]; Dose 50 mg/kg,45.36%
same,Number of writhing responses,[1]; Dose 125 mg/kg,18±12
same,Inhibition rate (%),[1]; Dose 125 mg/kg,62.89%
same,effect of inhibiting the number of writhing responses,[1]; dose of 125 mg/kg,very significant effect
same,dose-effect relationship,[1]; [4],relatively good dose-effect relationship
same,inhibition of the writhing effect compared with VX-548,[1]; [4],better than VX-548
same,analgesic activity compared with the positive control Celecoxib,[2]; CFA-induced rat inflammatory pain model,superior to the positive control Celecoxib
same,"PWT 50% value (g) Post-surgery, Preadministration","[2]; SD rats CFA, 125 mg/kg group, baseline before administration, Mean + SEM, n = 10",3.1 ± 1.12 g
same,PWT 50% value (g) Pre-surgery,"[2]; SD rats CFA, 125 mg/kg group, baseline before modeling, Mean + SEM, n = 10",12.61 ± 3.5 g
same,PWT 50% value (g) Time 0.5 h,"[2]; SD rats CFA, 125 mg/kg, 0.5 h after administration, Mean + SEM, n = 10",6.78 ± 5.47 g
same,PWT 50% value (g) Time 2 h,"[2]; SD rats CFA, 125 mg/kg, 2 h after administration, Mean + SEM, n = 10",6.54 ± 3.06 g
same,PWT 50% value (g) Time 8 h,"[2]; SD rats CFA, 125 mg/kg, 8 h after administration, Mean + SEM, n = 10",3.6 ± 1.5 g
same,PWT 50% value (g) AUC0-8h,"[2]; SD rats CFA, 125 mg/kg, Mean + SEM, n = 10",40.83 ± 12.03 g
same,"PWT 50% value (g) Post-surgery, Preadministration",incision pain model; 50 mg/kg group,0.22 ± 0.03 g
same,PWT 50% value (g) Pre-surgery,incision pain model; 50 mg/kg group,1.39 ± 0.31 g
same,PWT 50% value (g) 0.5 h,incision pain model; 50 mg/kg single dose,0.74 ± 0.3 g
same,PWT 50% value (g) 2 h,incision pain model; 50 mg/kg single dose,1.05 ± 0.38 g
same,PWT 50% value (g) 4 h,incision pain model; 50 mg/kg single dose,0.74 ± 0.29 g
same,"PWT 50% value (g) Post-surgery, Preadministration",incision pain model; 125 mg/kg group,0.22 ± 0.02 g
same,PWT 50% value (g) Pre-surgery,incision pain model; 125 mg/kg group,1.25 ± 0.31 g
same,PWT 50% value (g) 0.5 h,incision pain model; 125 mg/kg single dose,0.82 ± 0.33 g
same,PWT 50% value (g) 2 h,incision pain model; 125 mg/kg single dose,1.09 ± 0.32 g
same,PWT 50% value (g) 4 h,incision pain model; 125 mg/kg single dose,0.87 ± 0.16 g
same,PWT 50% value (g) AUC0-8h,incision pain model; 125 mg/kg single dose,6.08 ± 1.2 g·h
same,AUC(0-inf),"[3]; Oral administration (p.o.), 20 mg/kg",24800 ng·h/mL
same,AUC(0-inf),"[3]; iv, Injection (i.v.), 2 mg/kg",3080 ng·h/mL
